SMILES strings stand for the structures.

In the first test the test system is HBV rcDNA in HepDE19 cells. The test is described as follows: HepDE19 assay with bDNA quantitation of HBV rcDNA. The format is cell-based, hepatitis B virus. The following applies: Hepatitis B virus, HepDE19, HepDE19 assay, inhibition of rcDNA formation, bDNA quantitation; read-out: DE-19bDNA EC50.
On to `CN(C(=O)[C@H](O)Cc1ccccc1)[C@@H]1COCc2[nH]c(=O)c3cc(F)c(F)cc3c21` [Compound 88, (R)-N-((S)-8,9-Difluoro-6-oxo-1,4,5,6-tetrahydro-2H-pyrano[3,4-c]isoquinolin-1-yl)-2-hydroxy-N-methyl-3-phenylpropanamide], for which the EC50 was determined as 0.48 µM. Take `CN(C(=O)c1ccccc1)[C@@H]1COCc2[nH]c(=O)c3cc(F)c(F)cc3c21` [Compound 91, (S)-N-(8,9-Difluoro-6-oxo-1,4,5,6-tetrahydro-2H-pyrano[3,4-c]isoquinolin-1-yl)-N-methylbenzamide]: the EC50 was 1.01 µM.

Turning to `CN(C(=O)c1ccc(F)c(F)c1)[C@@H]1COCc2[nH]c(=O)c3cc(F)c(F)cc3c21` [Compound 92, (S)-N-(8,9-Difluoro-6-oxo-1,4,5,6-tetrahydro-2H-pyrano[3,4-c]isoquinolin-1-yl)-3,4-difluoro-N-methylbenzamide], the EC50 is 0.28 µM. As for `CN(C(=O)[C@@](C)(O)c1ccccc1)[C@@H]1COCc2[nH]c(=O)c3cc(F)c(F)cc3c21` [Compound 93, (S)-N-((S)-8,9-Difluoro-6-oxo-1,4,5,6-tetrahydro-2H-pyrano[3,4-c]isoquinolin-1-yl)-2-hydroxy-N-methyl-2-phenylpropanamide], the EC50 was 12 µM.

Regarding `CN(C(=O)[C@](C)(O)c1ccccc1)[C@@H]1COCc2[nH]c(=O)c3cc(F)c(F)cc3c21` [Compound 94, (R)-N-((S)-8,9-Difluoro-6-oxo-1,4,5,6-tetrahydro-2H-pyrano[3,4-c]isoquinolin-1-yl)-2-hydroxy-N-methyl-2-phenylpropanamide], the EC50 was found to be 3.2 µM. Regarding `CN(C(=O)[C@@H](O)c1ccccc1)[C@@H]1COCc2[nH]c(=O)c3cc(F)c(F)cc3c21` [Compound 95, (S)-N-((S)-8,9-Difluoro-6-oxo-1,4,5,6-tetrahydro-2H-pyrano[3,4-c]isoquinolin-1-yl)-2-hydroxy-N-methyl-2-phenylacetamide], the EC50 was 24 µM. Turning to `CN(C(=O)[C@H](O)c1ccccc1)[C@@H]1COCc2[nH]c(=O)c3cc(F)c(F)cc3c21` [Compound 96, (R)-N-((S)-8,9-Difluoro-6-oxo-1,4,5,6-tetrahydro-2H-pyrano[3,4-c]isoquinolin-1-yl)-2-hydroxy-N-methyl-2-phenylacetamide], the EC50 turned out to be 10 µM. With `CN(C(=O)c1cc2c(F)c(F)c(F)cc2[nH]1)[C@@H]1COCc2[nH]c(=O)c3cc(F)c(F)cc3c21` [Compound 97, (S)-N-(8,9-Difluoro-6-oxo-1,4,5,6-tetrahydro-2H-pyrano[3,4-c]isoquinolin-1-yl)-4,5,6-trifluoro-N-methyl-1H-indole-2-carboxamide], the EC50 was 0.01 µM. As to `CN(C(=O)c1ccc(C(F)(F)F)cc1)[C@@H]1COCc2[nH]c(=O)c3cc(F)c(F)cc3c21` [Compound 98, (S)-N-(8,9-Difluoro-6-oxo-1,4,5,6-tetrahydro-2H-pyrano[3,4-c]isoquinolin-1-yl)-N-methyl-4-(trifluoromethyl)benzamide], the EC50 came to 0.01 µM. On to `CN(C(=O)c1ccc(C#N)c(F)c1)[C@@H]1COCc2[nH]c(=O)c3cc(F)c(F)cc3c21` [Compound 100, (S)-4-Cyano-N-(8,9-difluoro-6-oxo-1,4,5,6-tetrahydro-2H-pyrano[3,4-c]isoquinolin-1-yl)-3-fluoro-N-methylbenzamide], for which the EC50 turned out to be 0.04 µM.

`CN(C(=O)c1ccc(F)c(C(F)F)c1)[C@@H]1COCc2[nH]c(=O)c3cc(F)c(F)cc3c21` [Compound 109, (S)-N-(8,9-Difluoro-6-oxo-1,4,5,6-tetrahydro-2H-pyrano[3,4-c]isoquinolin-1-yl)-3-(difluoromethyl)-4-fluoro-N-methylbenzamide]: the EC50 was determined as 0.02 µM. Turning to `CN(C(=O)c1ccc(C(F)F)c(F)c1)[C@@H]1COCc2[nH]c(=O)c3cc(F)c(F)cc3c21` [Compound 110, (S)-N-(8,9-Difluoro-6-oxo-1,4,5,6-tetrahydro-2H-pyrano[3,4-c]isoquinolin-1-yl)-4-(difluoromethyl)-3-fluoro-N-methylbenzamide], the EC50 came to 0.01 µM. Still for that read-out and setting: next, `CN(C(=O)c1ccc(C(F)F)cc1)[C@@H]1COCc2[nH]c(=O)c3cc(F)c(F)cc3c21` [Compound 111, (S)-N-(8,9-Difluoro-6-oxo-1,4,5,6-tetrahydro-2H-pyrano[3,4-c]isoquinolin-1-yl)-4-(difluoromethyl)-N-methylbenzamide]: 0.02 µM.

Take `CN(C(=O)c1ccc(F)c(Cl)c1)[C@@H]1COCc2[nH]c(=O)c3cc(F)c(F)cc3c21` [Compound 112, (S)-3-Chloro-N-(8,9-difluoro-6-oxo-1,4,5,6-tetrahydro-2H-pyrano[3,4-c]isoquinolin-1-yl)-4-fluoro-N-methylbenzamide]: the EC50 was 0.04 µM.

Take `CN(C(=O)c1nc2ccccc2s1)[C@@H]1COCc2[nH]c(=O)c3cc(F)c(F)cc3c21` [Compound 123, (S)-N-(8,9-Difluoro-6-oxo-1,4,5,6-tetrahydro-2H-pyrano[3,4-c]isoquinolin-1-yl)-N-methylbenzo[d]thiazole-2-carboxamide]: the EC50 was 1.5 µM. For the molecule `CN(C(=O)c1nc2ccccc2o1)[C@@H]1COCc2[nH]c(=O)c3cc(F)c(F)cc3c21` [Compound 124, (S)-N-(8,9-Difluoro-6-oxo-1,4,5,6-tetrahydro-2H-pyrano[3,4-c]isoquinolin-1-yl)-N-methylbenzo[d]oxazole-2-carboxamide], the half-maximal effective concentration (EC50) came to 1.1 µM. Consider `CN(C(=O)c1cc(C(F)(F)F)n[nH]1)[C@@H]1COCc2[nH]c(=O)c3cc(F)c(F)cc3c21` [Compound 125, (S)-N-(8,9-Difluoro-6-oxo-1,4,5,6-tetrahydro-2H-pyrano[3,4-c]isoquinolin-1-yl)-N-methyl-3-(trifluoromethyl)-1H-pyrazole-5-carboxamide], for which the EC50 stood at 0.15 µM. Regarding `CN(C(=O)c1cc(-c2ccc(F)cc2)n[nH]1)[C@@H]1COCc2[nH]c(=O)c3cc(F)c(F)cc3c21` [Compound 126, (S)-N-(8,9-Difluoro-6-oxo-1,4,5,6-tetrahydro-2H-pyrano[3,4-c]isoquinolin-1-yl)-3-(4-fluorophenyl)-N-methyl-1H-pyrazole-5-carboxamide], the EC50 was found to be 21 µM. Regarding `CN(C(=O)c1cccc(F)c1)[C@@H]1COCc2[nH]c(=O)c3cc(F)c(F)cc3c21` [Compound 127, (S)-N-(8,9-Difluoro-6-oxo-1,4,5,6-tetrahydro-2H-pyrano[3,4-c]isoquinolin-1-yl)-3-fluoro-N-methylbenzamide], the EC50 amounted to 0.38 µM. Turning to `CN(C(=O)c1cccc(Cl)c1)[C@@H]1COCc2[nH]c(=O)c3cc(F)c(F)cc3c21` [Compound 128, (S)-3-Chloro-N-(8,9-difluoro-6-oxo-1,4,5,6-tetrahydro-2H-pyrano[3,4-c]isoquinolin-1-yl)-N-methylbenzamide], the EC50 was 0.09 µM. With `CN(C(=O)c1cccc(Br)c1)[C@@H]1COCc2[nH]c(=O)c3cc(F)c(F)cc3c21` [Compound 129, (S)-3-Bromo-N-(8,9-difluoro-6-oxo-1,4,5,6-tetrahydro-2H-pyrano[3,4-c]isoquinolin-1-yl)-N-methylbenzamide], the EC50 turned out to be 0.09 µM.

The test is the same for the next values; noted with them: Hepatitis B virus, HepDE19, read-out: DE-19bDNA EC50 (μM).
As for `CN(C(=O)c1ccc(Cl)cc1)[C@@H]1COCc2[nH]c(=O)c3cc(F)c(F)cc3c21` [Compound 99, (S)-4-Chloro-N-(8,9-difluoro-6-oxo-1,4,5,6-tetrahydro-2H-pyrano[3,4-c]isoquinolin-1-yl)-N-methylbenzamide], the EC50 stood at 0.02 µM.
